# Results from US9725490B2, “ERAP1-derived peptide and use thereof” (TOKUSHIMA UNIVERSITY, priority 2011, dated 2017).
# Assays:
# Type in all cases: cell-based, human
# [1] = tested on: ZR-75-1, HCC1500, BT474, YMB-1, KPL-1, HBC4; experiment: E2-dependent cell proliferation assay, other ERα/ERAP1-positive breast cancer cell lines; conditions: 10 μM, 10 nM E2 24 hours
# Description: FIG. 7-2 is a diagram illustrating that ERAP1-peptide treatment suppresses ERα-dependent cell proliferation of breast cancer cell lines. […] Various ERα/ERAP1-positive breast cancer cell lines shown in the figure were treated with 10 μM of the ERAP1-peptide or the scramble peptide or 10 nM tamoxifen. Then, immediately, the cells were stimulated with 10 nM E2 for 24 hours.
# Using Cell-Counting Kit-8 (CCK-8, Dojindo, Kumamoto, Japan), the cell proliferation assay was performed. The cells were harvested, and plated in 2×10^4 cells/well on a 48-well plate, and maintained at 37° C. in a humidified incubator. At the indicated time points, the cells were added with a CCK-8 solution diluted to 1:10, and incubated for 1 hour. Then, the absorbance at 450 nm was measured and the number of living cells in each well was calculated.
# [2] = tested on: tamoxifen-resistant MCF-7 cells; experiment: Proliferation of tamoxifen-resistant MCF-7 cells; conditions: 0, 5, 10 μM; in the presence of E2 and tamoxifen; 24 hours
# Description: FIG. 14 is a diagram illustrating the suppression effect of the ERAP1-peptide on tamoxifen-resistant MCF-7 cells. […] The tamoxifen-resistant MCF-7 cells were treated with the ERAP1-peptide in each concentration (0, 5 and 10 μM). Then, immediately, the cells were stimulated with 10 nM E2 for 24 hours.
# As the tamoxifen-resistant MCF-7 cell lines, those provided from Dr. Satoshi Inoue (Saitama Medical University Research Center for Genomic Medicine) under Material transfer agreement were offered for the experiment described below. The culture of tamoxifen-resistant MCF-7 cell was performed under the conditions recommended by the depositor. The tamoxifen-resistant MCF-7 cells were cultured in DMEM (Invitrogen, Carlsbad, Calif., USA) reinforced with 10% FBS (Nichirei Biosciences, Tokyo, Japan), 1% penicillin/streptomycin (Nacalai tesque, Kyoto, Japan), 1 μM tamoxifen (Sigma, St. Louis. Mo., USA).
# Cell proliferation assay was evaluated using Cell-Counting Kit-8 (CCK-8, manufactured by Dojindo Company). First, tamoxifen-resistant MCF-7 cells were seeded in 2×10^4/well on a 48-well plate in DMEM/F12 culture medium containing phenol red and stood in a CO2 incubator for 24 hours. […] Then, 100 μl was moved to a 96-well plate from each well, and the absorbance at 450 nm was measured with a microplate reader.
# HCC1395 cells = experiment: Proliferation of ERα-positive/ERAP1-negative HCC1395 cells; conditions: 10 nM E2 96 hours
# Description: FIG. 21 is a diagram illustrating that […] was translocated into the nucleus by E2 stimulation in ERAP1-negative breast cancer cell lines, HCC1395 cells. […] Then, immediately, the cells were stimulated with 1 μM E2 for 24 hours. The cells were fractionated into cytoplasm and nuclear fractions by specific gravity centrifugation. Then, each fraction was subjected to immunoblotting analysis using an anti-PHB2 antibody. Lamin and Tubulin are markers for […]. […] HCC1395 cells were treated with 5 μM ERAP1-peptide. Then, immediately, the cells were stimulated with 1 μM E2 for 24 hours. Then, the nuclear fraction was immunoprecipitated with anti-ERα antibody. Furthermore, with respect to the obtained sample, the immunoprecipitate was subjected to immunoblotting analysis with the antibodies shown in the figure. […] Then, immediately the cells were stimulated with 10 nM E2 for 96 hours.
# The proliferation assay of HCC1395 cells was evaluated using Cell-Counting Kit-8 (CCK-8, Dojindo, Kumamoto, Japan). First, HCC1395 cells were seeded in 2×10^4/well in RPMI culture medium containing 10% FBS and 1% antibiotic/antimycotic solution and not containing phenol red on a 48-well plate, and stood in a CO2 incubator. […] Then, 100 μl from each well was moved to a 96-well plate, and the absorbance at 450 nm was measured with a microplate reader.
# ERAP1 expression = experiment: ERAP1 expression, quantitative RT-PCR and Western, MCF-7; conditions: 10 μM peptide, time course
# [3] = tested on: transcriptional activity of ERE-ERα; experiment: ERE-luciferase reporter assay in KPL-3C cells; conditions: 10 nM E2 24 hours
# Description: (§1) KPL-3C cells temporarily transfected with an ERE-luciferase reporter vector were treated with the ERAP1-peptide in the concentrations shown in the figure. Then, immediately, the cells were stimulated with 10 nM E2 for 24 hours. TAM indicates the tamoxifen treatment. […] KPL-3C cells were treated for 24 hours with the ERAP1-peptide and/or E2. Then, the nuclear fraction was immunoprecipitated with anti-ERα antibody or an anti-PHB2 antibody.
# [4] = tested on: ERα complex with PHB2/REA, NcoR, HDAC1, SRC-1; experiment: Chromatin remodeling complex, immunoprecipitation of nuclear fraction
# Description: as §1
# FIG. 4-4 is a diagram illustrating that the ERAP1-peptide promotes nuclear translocation of PHB2. […] MCF-7 cells were treated with the ERAP1-peptide and/or 10 nM E2 for 24 hours. Then, the nuclear fraction was immunoprecipitated with anti-ERα antibody or an anti-PHB2 antibody. […] MCF-7 cells were treated with the ERAP1-peptide and/or E2 for 24 hours. Then, the cell lysate was immunoprecipitated with anti-PHB2 antibody. Subsequently, the HDAC activity in the immunoprecipitate was measured with a commercially available kit. The nuclear extract from the HeLa cells and PBS were used as a positive control (P) and as negative control (N), respectively.
# As described in the item of “Western blotting analysis”, the cells were lysed with a 0.1% NP-40 lysis buffer. The cell lysate was precleaned using normal IgG and rec-Protein G Sepharose 4B (Zymed, San Francisco, Calif., USA) at 4° C. for 3 hours. […]
smiles,measurement,setting,value
CSCC[C@H](NC(=O)[C@H](CCC(N)=O)NC(=O)[C@H](CCCNC(=N)N)NC(=O)[C@H](CCCNC(=N)N)NC(=O)[C@H](CCCNC(=N)N)NC(=O)[C@H](CCCNC(=N)N)NC(=O)[C@H](CCCNC(=N)N)NC(=O)[C@H](CCCNC(=N)N)NC(=O)[C@H](CCCNC(=N)N)NC(=O)[C@H](CCCNC(=N)N)NC(=O)[C@H](CCCNC(=N)N)NC(=O)[C@H](CCCNC(=N)N)NC(=O)[C@@H](N)CCCNC(=N)N)C(=O)N[C@@H](CC(C)C)C(=O)N[C@@H](CO)C(=O)N[C@@H](CC(=O)O)C(=O)N[C@@H](CC(C)C)C(=O)N[C@H](C(=O)N[C@@H](CC(C)C)C(=O)N[C@@H](CCC(N)=O)C(=O)N[C@@H](CC(C)C)C(=O)N[C@@H](CCCNC(=N)N)C(=O)N[C@@H](CCC(N)=O)C(=O)N[C@@H](CCCNC(=N)N)C(=O)O)[C@@H](C)O [ERAP1-peptide],E2-dependent cell proliferation,[1],remarkable E2-dependent proliferation suppression effect in all of the cells
same,cell proliferation of Tam-R MCF-7,[2],remarkably suppressed the cell proliferation in dose-dependent manner
same,cell proliferation,HCC1395 cells,not recognized
same,E2-dependent expression of ERAP1,ERAP1 expression,temporally suppressed
same,transcriptional activity of ERE-ERα,[3],suppression for the transcriptional activity of ERE-ERα was recognized
same,interaction of ERα with transcription factors,[4]; KPL-3C cells,ERα recruited NcoR and HDAC1 to form a complex
same,interaction of ERα with transcription factors,[4]; MCF-7 cells,"the binding of ERα and SRC-1 decreased, whereas ERα interacted with PHB2/REA, and further recruited NcoR and HDAC1 to form a complex"
